Measurements taken from US20110269755A1, “COMPOSITIONS AND METHODS FOR TREATING VASCULAR, AUTOIMMUNE, AND INFLAMMATORY DISEASES” (Aspreva International Ltd., priority 2006, published 2011).
Converted amounts (≈) assume the structure as drawn. “Also recorded” adds a separate entry of the source.

Key:
[1] = system: Ldlr−/− mice; test: Atherosclerosis in Ldlr−/− mice on Western-type diet, plaque area at the aortic root, MMF alone; type: in vivo; settings: for reduction of atherosclerosis (AS), percentage of aortic sinus occluded by plaque: 12 weeks
Text: (§1) Additional secondary endpoints examined were plasma levels of cholesterol, HDL cholesterol, triglycerides, and phospholipids.

[2] = system: Ldlr−/− mice; test: Serum/plasma lipid levels in Ldlr−/− mice on Western-type diet, MMF alone; type: in vivo
Text: as §1

[3] = cited from earlier work
[4] = following oral or intravenous administration; cited from earlier work
[5] = system: allograft survival; settings: mice; cited from earlier work
[6] = system: endothelial nitric oxide synthase (eNOS); settings: in vitro, cited from earlier work
[7] = system: antibody response to sheep red blood cells; settings: mice; cited from earlier work

Structure (SMILES): COc1c(C)c2c(c(O)c1C/C=C(\C)CCC(=O)OCCN1CCOCC1)C(=O)OC2 [MMF, morpholinoethyl E-6-(1,3-dihydro-4-hydroxy-6-methoxy-7-methyl-3-oxo-5-isobenzofuranyl)-4-methyl-4-hexenoate]
- reduction of atherosclerosis (AS), percentage of aortic sinus occluded by plaque ([1]; MMF 6 mg/kg/day in diet, male Ldlr−/− mice): 18%
- reduction of atherosclerosis (AS), percentage of aortic sinus occluded by plaque ([1]; MMF 15 mg/kg/day in diet, male Ldlr−/− mice): 30%
- reduction of atherosclerosis (AS), percentage of aortic sinus occluded by plaque ([1]; MMF 30 mg/kg/day in diet, male Ldlr−/− mice): 28%
- reduction of atherosclerosis (AS), percentage of aortic sinus occluded by plaque ([1]; MMF 100 mg/kg/day in diet, male Ldlr−/− mice): 64%
- dose response of the reduction of atherosclerosis ([1]; MMF 6, 15, 30 and 100 mg/kg/day, male Ldlr−/− mice): dose-dependent
- effect on atherosclerosis / atheromatous plaques ([1]; MMF alone, doses lower than used for preventing organ rejection, Ldlr−/− mice): reduce atherosclerosis; also recorded: reduction of atheromatous plaques
- HDL cholesterol levels ([2]; Ldlr−/− mice): no effect
- total cholesterol levels ([2]; Ldlr−/− mice): no effect
- serum cholesterol levels ([2]; male Ldlr−/− mice): did not lower
- serum phospholipid levels ([2]; male Ldlr−/− mice): lower; also recorded: decreases
- serum triglyceride levels ([2]; male Ldlr−/− mice): lower; also recorded: decreases
- solubility ([3]; in 5% dextrose solution): 65.8 mg/mL (≈ 152 mM)
- solubility in water ([3]; water): insoluble
- metabolism to the active metabolite MPA [4]: rapidly and completely metabolized
- effective dose for in vivo prolongation of allograft survival [5]: about 80 mg/kg/day

Structure (SMILES): CC[C@H](C)C(=O)O[C@H]1C[C@@H](C)C=C2C=C[C@H](C)[C@H](CC[C@@H]3C[C@@H](O)CC(=O)O3)[C@H]21 [lovastatin]
- upregulation of eNOS expression ([6]; cholesterol clamped conditions): almost fourfold
- downregulation of eNOS by oxidized LDL [6]: completely prevent

Structure (SMILES): COc1c(C)c2c(c(O)c1C/C=C(\C)CCC(=O)O)C(=O)OC2 [MPA, mycophenolic acid]
- trend in aortic root lesions as a function of serum MPA levels (linear regression) ([1]; Ldlr−/− mice given MMF): statistically significant decreasing trend
- ED50 for inhibiting the antibody reaction [7]: about 33 mg/kg/day
